Measured values published in ChEMBL document CHEMBL1201862, “PubChem BioAssay data set” (2004).
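Cultured in 96-well plates, cells were exposed to test compound for 48 hours across five concentrations. Here, GI50 denotes the concentration required for 50% inhibition of growth.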 Calls of active or inactive are those of the source. Cut-off read from the data, not from the text of the source: active = GI50 up to about 1.1 µM and inactive = higher.

Key:
Assay in all cases: NCI anticancer screen, dose series, 48 h
786-0 = system: 786-0
A498 = system: A498
A549 = system: A549
ACHN = system: ACHN
BT-549 = system: BT-549
CAKI-1 = system: CAKI-1
CCRF-CEM = system: CCRF-CEM
COLO 205 = system: COLO 205
DU-145 = system: DU-145
EKVX = system: EKVX
HCC 2998 = system: HCC 2998
HCT-116 = system: HCT-116
HCT-15 = system: HCT-15
HL-60 = system: HL-60
HOP-62 = system: HOP-62
HOP-92 = system: HOP-92
HT-29 = system: HT-29
Hs-578T = system: Hs-578T
IGROV-1 = system: IGROV-1
K562 = system: K562
KM12 = system: KM12
M14 = system: M14
MCF7 = system: MCF7
MDA-MB-231 = system: MDA-MB-231
MDA-MB-435 = system: MDA-MB-435
MOLT-4 = system: MOLT-4
Malme-3M = system: Malme-3M
NCI-H226 = system: NCI-H226
NCI-H23 = system: NCI-H23
NCI-H460 = system: NCI-H460
NCI-H522 = system: NCI-H522
NCI/ADR-RES = system: NCI/ADR-RES
OVCAR-3 = system: OVCAR-3
OVCAR-4 = system: OVCAR-4
OVCAR-5 = system: OVCAR-5
OVCAR-8 = system: OVCAR-8
PC-3 = system: PC-3
RPMI-8226 = system: RPMI-8226
RXF 393 = system: RXF 393
SF-268 = system: SF-268
SF-295 = system: SF-295
SF-539 = system: SF-539
SK-MEL-28 = system: SK-MEL-28
SK-MEL-2 = system: SK-MEL-2
SK-MEL-5 = system: SK-MEL-5
SK-OV-3 = system: SK-OV-3
SN12C = system: SN12C
SNB-19 = system: SNB-19
SNB-75 = system: SNB-75
SR = system: SR
SW-620 = system: SW-620
T47D = system: T47D
TK-10 = system: TK-10
U-251 = system: U-251
UACC-257 = system: UACC-257
UACC-62 = system: UACC-62
UO-31 = system: UO-31
LOX IMVI = system: LOX IMVI
MDA-N = system: MDA-N

## COc1ccc(C[C@@H](C(=O)O[C@H](C)[C@H](NC(=O)[C@@H](CC(C)C)N(C)C(=O)C2CCCN2C(=O)[C@H](C)O)C(=O)N2CCCCNC(=O)[C@@H](C)C(=O)[C@H](C(C)C)OC(=O)C[C@H](O)[C@H]2CC(C)C)N(C)C(C)=O)cc1 (stereo partly drawn)
786-0
  GI50: 12.4 µM (inactive)
A498
  GI50: 14.3 µM (inactive)
A549
  GI50: 13.2 µM (inactive)
ACHN
  GI50: 12.6 µM (inactive)
BT-549
  GI50: 17.5 µM (inactive)
CAKI-1
  GI50: 10.8 µM (inactive)
CCRF-CEM
  GI50: 8.61 µM (inactive)
COLO 205
  GI50: 6.82 µM (inactive)
DU-145
  GI50: 11.4 µM (inactive)
EKVX
  GI50: 6.78 µM (inactive)
HCC 2998
  GI50: 9.33 µM (inactive)
HCT-116
  GI50: 4.76 µM (inactive)
HCT-15
  GI50: 16 µM
HL-60
  GI50: 10.9 µM (inactive)
HOP-62
  GI50: 13.4 µM (inactive)
HOP-92
  GI50: 15 µM (inactive)
HT-29
  GI50: 3.27 µM (inactive)
Hs-578T
  GI50: 4.11 µM (inactive)
IGROV-1
  GI50: 9.2 µM (inactive)
K562
  GI50: 8.05 µM (inactive)
KM12
  GI50: 4.89 µM (inactive)
M14
  GI50: 9.08 µM (inactive)
MCF7
  GI50: 2.78 µM (inactive)
MDA-MB-231
  GI50: 9.35 µM (inactive)
MDA-MB-435
  GI50: 16.7 µM (inactive)
MOLT-4
  GI50: 8.41 µM (inactive)
Malme-3M
  GI50: 10.2 µM (inactive)
NCI-H226
  GI50: 11.7 µM (inactive)
NCI-H23
  GI50: 10.3 µM (inactive)
NCI-H460
  GI50: 9.82 µM (inactive)
NCI-H522
  GI50: 9.25 µM (inactive)
NCI/ADR-RES
  GI50: 21.3 µM (inactive)
OVCAR-3
  GI50: 14 µM (inactive)
OVCAR-4
  GI50: 7.83 µM (inactive)
OVCAR-5
  GI50: 7.89 µM (inactive)
OVCAR-8
  GI50: 18.9 µM (inactive)
PC-3
  GI50: 15.8 µM (inactive)
RPMI-8226
  GI50: 9.08 µM (inactive)
RXF 393
  GI50: 5.2 µM (inactive)
SF-268
  GI50: 17.8 µM (inactive)
SF-295
  GI50: 10.1 µM (inactive)
SF-539
  GI50: 5.18 µM (inactive)
SK-MEL-28
  GI50: 4.13 µM (inactive)
SK-MEL-2
  GI50: 17.7 µM (inactive)
SK-MEL-5
  GI50: 3.95 µM (inactive)
SK-OV-3
  GI50: 16.1 µM (inactive)
SN12C
  GI50: 15.2 µM (inactive)
SNB-19
  GI50: 10.6 µM (inactive)
SNB-75
  GI50: 9.84 µM (inactive)
SR
  GI50: 9.95 µM (inactive)
SW-620
  GI50: 5.85 µM (inactive)
T47D
  GI50: 10.7 µM (inactive)
TK-10
  GI50: 38.5 µM (inactive)
U-251
  GI50: 3.1 µM (inactive)
UACC-257
  GI50: 17.5 µM (inactive)
UACC-62
  GI50: 3.71 µM (inactive)
UO-31
  GI50: 36.1 µM (inactive)

## COc1cc(/C=C/C(=O)c2ccc(NS(=O)(=O)c3cc([N+](=O)[O-])ccc3C)cc2)cc(OC)c1OC
786-0
  GI50: 2.74 µM (inactive)
A549
  GI50: 3.81 µM (inactive)
ACHN
  GI50: 4.38 µM (inactive)
BT-549
  GI50: 4.27 µM (inactive)
CAKI-1
  GI50: 3.74 µM (inactive)
CCRF-CEM
  GI50: 2.2 µM (inactive)
COLO 205
  GI50: 4.26 µM (inactive)
DU-145
  GI50: 3.13 µM (inactive)
EKVX
  GI50: 5.36 µM (inactive)
HCT-116
  GI50: 2.38 µM (inactive)
HCT-15
  GI50: 3.04 µM
HL-60
  GI50: 3.37 µM (inactive)
HOP-62
  GI50: 2.99 µM (inactive)
HOP-92
  GI50: 2.98 µM (inactive)
HT-29
  GI50: 4.38 µM (inactive)
IGROV-1
  GI50: 3.88 µM (inactive)
K562
  GI50: 2.88 µM (inactive)
KM12
  GI50: 2.62 µM (inactive)
LOX IMVI
  GI50: 3.29 µM (inactive)
M14
  GI50: 2.99 µM (inactive)
MCF7
  GI50: 2.77 µM (inactive)
MDA-MB-231
  GI50: 2.59 µM (inactive)
MDA-MB-435
  GI50: 3.71 µM (inactive)
MDA-N
  GI50: 3.62 µM (inactive)
MOLT-4
  GI50: 1.85 µM (inactive)
NCI-H226
  GI50: 2.97 µM (inactive)
NCI-H23
  GI50: 3.05 µM (inactive)
NCI/ADR-RES
  GI50: 8.41 µM (inactive)
OVCAR-3
  GI50: 3.15 µM (inactive)
OVCAR-4
  GI50: 3.19 µM (inactive)
OVCAR-5
  GI50: 4.37 µM (inactive)
OVCAR-8
  GI50: 2.49 µM (inactive)
PC-3
  GI50: 5.9 µM (inactive)
RPMI-8226
  GI50: 1.96 µM (inactive)
RXF 393
  GI50: 2.81 µM (inactive)
SF-295
  GI50: 4.61 µM (inactive)
SF-539
  GI50: 2.18 µM (inactive)
SK-MEL-28
  GI50: 8.43 µM (inactive)
SK-MEL-2
  GI50: 2.67 µM (inactive)
SK-MEL-5
  GI50: 4.18 µM (inactive)
SK-OV-3
  GI50: 4.01 µM (inactive)
SN12C
  GI50: 1.87 µM (inactive)
SNB-19
  GI50: 3.85 µM (inactive)
SNB-75
  GI50: 4.39 µM (inactive)
SR
  GI50: 1.82 µM (inactive)
SW-620
  GI50: 4.49 µM (inactive)
T47D
  GI50: 12.1 µM (inactive)
TK-10
  GI50: 3.96 µM (inactive)
U-251
  GI50: 3.37 µM (inactive)
UACC-257
  GI50: 7.53 µM (inactive)
UO-31
  GI50: 5.82 µM (inactive)

## COc1cc(C2SCC(=O)N2c2ccc(-c3ccc(-n4c(-c5ccccc5)nc5ccccc5c4=O)cc3)cc2)cc(OC)c1OC (stereo not drawn)
786-0
  GI50: 16.2 µM (inactive)
A498
  GI50: 44.3 µM (inactive)
A549
  GI50: 24.6 µM (inactive)
ACHN
  GI50: 16.6 µM (inactive)
BT-549
  GI50: 17.3 µM (inactive)
CAKI-1
  GI50: 19.1 µM (inactive)
CCRF-CEM
  GI50: 10.6 µM (inactive)
COLO 205
  GI50: 54.1 µM (inactive)
DU-145
  GI50: 78 µM (inactive)
EKVX
  GI50: 37.5 µM (inactive)
HCC 2998
  GI50: 55.2 µM (inactive)
HCT-116
  GI50: 13.1 µM (inactive)
HCT-15
  GI50: 28.6 µM
HL-60
  GI50: 22.3 µM (inactive)
HOP-62
  GI50: 23.3 µM (inactive)
HOP-92
  GI50: 50.7 µM (inactive)
HT-29
  GI50: 33.3 µM (inactive)
Hs-578T
  GI50: 20 µM (inactive)
IGROV-1
  GI50: 19 µM (inactive)
K562
  GI50: 13.6 µM (inactive)
KM12
  GI50: 12.6 µM (inactive)
LOX IMVI
  GI50: 2.21 µM (inactive)
M14
  GI50: 20.5 µM (inactive)
MCF7
  GI50: 26.2 µM (inactive)
MDA-MB-231
  GI50: 15.6 µM (inactive)
MDA-MB-435
  GI50: 21.8 µM (inactive)
MOLT-4
  GI50: 21.1 µM (inactive)
Malme-3M
  GI50: 31.7 µM (inactive)
NCI-H226
  GI50: > 100 µM (inactive)
NCI-H23
  GI50: 73.1 µM (inactive)
NCI-H460
  GI50: 27.5 µM (inactive)
NCI-H522
  GI50: 13.4 µM (inactive)
NCI/ADR-RES
  GI50: 29.2 µM (inactive)
OVCAR-3
  GI50: 18.5 µM (inactive)
OVCAR-4
  GI50: 10.4 µM (inactive)
OVCAR-5
  GI50: > 100 µM (inactive)
OVCAR-8
  GI50: 43.4 µM (inactive)
PC-3
  GI50: 11.4 µM (inactive)
RPMI-8226
  GI50: > 100 µM (inactive)
SF-268
  GI50: 63 µM (inactive)
SF-539
  GI50: 30.3 µM (inactive)
SK-MEL-28
  GI50: 21.9 µM (inactive)
SK-MEL-2
  GI50: 22.2 µM (inactive)
SK-MEL-5
  GI50: 22.4 µM (inactive)
SK-OV-3
  GI50: 57.3 µM (inactive)
SN12C
  GI50: 81.5 µM (inactive)
SNB-19
  GI50: 26.5 µM (inactive)
SR
  GI50: 23.1 µM (inactive)
SW-620
  GI50: 17.3 µM (inactive)
T47D
  GI50: 24.8 µM (inactive)
TK-10
  GI50: 63.1 µM (inactive)
U-251
  GI50: 22.2 µM (inactive)
UACC-257
  GI50: 8.04 µM (inactive)
UACC-62
  GI50: 21.2 µM (inactive)
UO-31
  GI50: 25.2 µM (inactive)
